Data as given in ChEMBL document CHEMBL1126820, “4-alkylamino-3-bromo-N-alkyl-1,8-naphthalimides: new photochemically activatable antiviral compounds” (1993).

Columns and labels:
[1] = Concentration required for Photoinactivation of enveloped viruses; type: functional
Human alphaherpesvirus 1 = assay: Photoinactivation against simplex virus type 1; type: functional
[2] = system: Human immunodeficiency virus 1; assay: Concentration required for Photoinactivation of cell-associated HIV-1; type: functional
[3] = system: Human immunodeficiency virus 1; assay: Concentration required for Photoinactivation of cell-free HIV-1; type: functional, organism-based

SMILES	Activity [1] [µM]	Activity (Human alphaherpesvirus 1) [nM]	Activity [2] [nM]	Activity [3] [µM]
CCCCNc1c(Br)cc2c3c(cccc13)C(=O)N(CCCC)C2=O	0.1	–	–	–
CCCCCCCCNc1c(Br)cc2c3c(cccc13)C(=O)N(CCCCCCCC)C2=O	0.1	–	–	–
CCCCCCN1C(=O)c2cccc3c(NCCNC(=O)CCCCC(=O)NCCNc4c(Br)cc5c6c(cccc46)C(=O)N(CCCCCC)C5=O)c(Br)cc(c23)C1=O	0.1	<500	300	1
CCCCCCNc1c(Br)cc2c3c(cccc13)C(=O)N(CCCCCC)C2=O	0.1	–	–	–
